The source of these data is the NIST ThermoML archive (doi:10.1021/je800925v).

Structures are written as SMILES. Numbers after ± are expanded uncertainties.

For data set [1] the following is noted: Liquid.
Data set [2] can be described thus: xn = mol fraction of the nth substance listed. The following applies: Liquid, x1 = 1.

By mass density is commonly meant the mass of a sample divided by its volume. Usually viscosity stands for the resistance of a fluid to flow. As to `CCCCCCCCCC` [decane], in data set [1] (293.15 K), the mass density was found to be 731 ± 2.4 kg/m3 and the viscosity turned out to be 0.9133 ± 0.028 mPa·s. Moreover, in data set [1] (298.15 K), the mass density stood at 727.2 ± 2.4 kg/m3 and the viscosity is on record as 0.8509 ± 0.027 mPa·s.

In the case of `CCO` [ethanol], the mass density came out at 790.2 ± 2.2 kg/m3 in data set [1] (293.15 K) and 785.9 ± 2.2 kg/m3 in data set [1] (298.15 K). Also, the figures for the viscosity in data set [1] (293.15 K) and in data set [1] (298.15 K) were 1.21 ± 0.062 mPa·s and 1.099 ± 0.059 mPa·s, respectively.

In the case of `CCO` [ethanol] + CCCCCC, in data set [2] (293.15 K), the mass density came to 790.2 ± 2.2 kg/m3 and the viscosity amounted to 1.21 ± 0.062 mPa·s. In addition, in data set [2] (298.15 K), the mass density was 785.9 ± 2.2 kg/m3 and the viscosity was 1.099 ± 0.059 mPa·s.

Turning to `CCCCCCCC` [octane], the mass density in data set [1] (293.15 K) was determined as 705.6 ± 9.5 kg/m3; in data set [1] (298.15 K), 701.6 ± 9.6 kg/m3. Moreover, the viscosity in data set [1] (293.15 K) is listed as 0.5374 ± 0.023 mPa·s; in data set [1] (298.15 K), 0.5087 ± 0.022 mPa·s.

`CCO` [ethanol] + CCCCCCCC: the results for the mass density in data set [2] (293.15 K) and in data set [2] (298.15 K) were 790.2 ± 7.5 kg/m3 and 785.9 ± 7.6 kg/m3, respectively.

For `CCCCCC` [hexane], in data set [1] (293.15 K), the mass density came out at 659.8 ± 2.8 kg/m3 and the viscosity stood at 0.2979 ± 0.038 mPa·s. Besides, in data set [1] (298.15 K), the mass density came to 655.3 ± 2.8 kg/m3 and the viscosity is reported as 0.2865 ± 0.038 mPa·s.
